What was measured:
KDM5D = KDM5D (Homo sapiens, UniProt Q9BY66); assay: AlphaScreen in vitro demethylase assay; assay type: biochemical; conditions: IC50 ± SD (number of replicates)
Description: IC50 values were determined as previously described. The following amendments were made to the protocol for carrying out 2-OG competition assays.

KDM4C = molecular target: T1, KDM4C (Homo sapiens, UniProt Q9H3R0); assay: High-content immunofluorescence (IF) assay, overexpressed full-length FLAG-tagged KDM in HeLa cells; assay type: cell-based; conditions: HeLa cells overexpressing WT KDM4C, H3K9me3 mark, 24 h; read-out: KDM4C, in cells, EC50 by IF assay (head: IC50)
T1 sequence (Q9H3R0 1-1056): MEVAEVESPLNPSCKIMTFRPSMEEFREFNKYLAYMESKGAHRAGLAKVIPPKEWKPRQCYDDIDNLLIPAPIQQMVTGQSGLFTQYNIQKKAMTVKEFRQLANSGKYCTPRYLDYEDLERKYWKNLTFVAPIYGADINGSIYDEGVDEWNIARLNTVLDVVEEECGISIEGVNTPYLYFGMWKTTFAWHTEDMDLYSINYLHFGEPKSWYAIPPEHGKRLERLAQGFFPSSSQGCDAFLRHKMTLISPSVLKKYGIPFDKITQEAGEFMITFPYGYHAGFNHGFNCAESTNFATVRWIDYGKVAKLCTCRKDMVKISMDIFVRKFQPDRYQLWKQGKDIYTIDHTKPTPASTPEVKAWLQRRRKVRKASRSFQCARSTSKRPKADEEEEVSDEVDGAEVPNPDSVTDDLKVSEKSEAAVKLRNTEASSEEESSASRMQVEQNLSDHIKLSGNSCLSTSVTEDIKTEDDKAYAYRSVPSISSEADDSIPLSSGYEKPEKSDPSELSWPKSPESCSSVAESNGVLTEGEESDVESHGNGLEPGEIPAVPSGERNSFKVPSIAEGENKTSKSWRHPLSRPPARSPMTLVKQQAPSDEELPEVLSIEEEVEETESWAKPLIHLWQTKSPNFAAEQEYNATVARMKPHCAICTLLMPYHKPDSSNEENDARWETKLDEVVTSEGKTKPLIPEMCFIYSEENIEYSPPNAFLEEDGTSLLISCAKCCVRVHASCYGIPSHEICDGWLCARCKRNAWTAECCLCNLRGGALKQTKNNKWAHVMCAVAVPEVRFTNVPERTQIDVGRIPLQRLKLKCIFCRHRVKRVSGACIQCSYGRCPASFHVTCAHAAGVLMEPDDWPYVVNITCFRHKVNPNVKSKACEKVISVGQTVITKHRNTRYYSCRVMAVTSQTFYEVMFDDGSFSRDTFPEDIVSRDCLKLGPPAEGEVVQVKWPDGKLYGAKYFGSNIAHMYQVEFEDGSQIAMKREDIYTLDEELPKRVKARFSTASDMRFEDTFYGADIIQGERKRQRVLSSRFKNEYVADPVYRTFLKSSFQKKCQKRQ
Description: HeLa cells (ATCC) were cultured at 37 °C and 5% CO2 in Minimal Essential Media—Eagle (Sigma-Aldrich, UK) supplemented with 10% heat-inactivated foetal calf serum (FCS) (Gibco, UK), and 1% L-glutaMAX (Gibco, UK) in T75 flasks (Sarstedt, UK) and passaged regularly with TrypLE (Life Technologies, UK) before cells reached confluence. On day 0, 7000 cells per well were plated on a 96-well clear bottom CellCarrier plate (PerkinElmer, UK). The next day the cells were transfected with Lipofectamine 3000 (ThermoFisher Scientific, UK) following the manufacturer’s instructions. Briefly, 0.1 µg of plasmid DNA (encoding for the respective demethylase) and 0.15 µL of Lipofectamine 3000 were diluted in separate tubes containing 5 µL OptiMEM. 0.15 µL of P3000 was added to the tube with the DNA. The two solutions were then mixed gently and allowed to incubate for 5 min at room temperature. Next, the DNA-lipid complex was added to the cells for 4 h at 37 °C and 5% CO2.
Compound dilutions were made in a 96-well PCR plate (Starlab, UK). The culture medium was supplemented with 0.4% DMSO so that the solvent concentration was maintained throughout. Compounds were serially diluted at a 1:2 or 1:3 dilution ratio. Next, the cell culture plate was removed from the incubator and the medium was gently aspirated and replaced with the fresh medium containing diluted compounds.
Then cells were rinsed once with PBS and blocked for 30 min at room temperature using 3% v/v foetal calf serum diluted in PBS.

Sequence of KDM5D (Q9BY66 whole entry): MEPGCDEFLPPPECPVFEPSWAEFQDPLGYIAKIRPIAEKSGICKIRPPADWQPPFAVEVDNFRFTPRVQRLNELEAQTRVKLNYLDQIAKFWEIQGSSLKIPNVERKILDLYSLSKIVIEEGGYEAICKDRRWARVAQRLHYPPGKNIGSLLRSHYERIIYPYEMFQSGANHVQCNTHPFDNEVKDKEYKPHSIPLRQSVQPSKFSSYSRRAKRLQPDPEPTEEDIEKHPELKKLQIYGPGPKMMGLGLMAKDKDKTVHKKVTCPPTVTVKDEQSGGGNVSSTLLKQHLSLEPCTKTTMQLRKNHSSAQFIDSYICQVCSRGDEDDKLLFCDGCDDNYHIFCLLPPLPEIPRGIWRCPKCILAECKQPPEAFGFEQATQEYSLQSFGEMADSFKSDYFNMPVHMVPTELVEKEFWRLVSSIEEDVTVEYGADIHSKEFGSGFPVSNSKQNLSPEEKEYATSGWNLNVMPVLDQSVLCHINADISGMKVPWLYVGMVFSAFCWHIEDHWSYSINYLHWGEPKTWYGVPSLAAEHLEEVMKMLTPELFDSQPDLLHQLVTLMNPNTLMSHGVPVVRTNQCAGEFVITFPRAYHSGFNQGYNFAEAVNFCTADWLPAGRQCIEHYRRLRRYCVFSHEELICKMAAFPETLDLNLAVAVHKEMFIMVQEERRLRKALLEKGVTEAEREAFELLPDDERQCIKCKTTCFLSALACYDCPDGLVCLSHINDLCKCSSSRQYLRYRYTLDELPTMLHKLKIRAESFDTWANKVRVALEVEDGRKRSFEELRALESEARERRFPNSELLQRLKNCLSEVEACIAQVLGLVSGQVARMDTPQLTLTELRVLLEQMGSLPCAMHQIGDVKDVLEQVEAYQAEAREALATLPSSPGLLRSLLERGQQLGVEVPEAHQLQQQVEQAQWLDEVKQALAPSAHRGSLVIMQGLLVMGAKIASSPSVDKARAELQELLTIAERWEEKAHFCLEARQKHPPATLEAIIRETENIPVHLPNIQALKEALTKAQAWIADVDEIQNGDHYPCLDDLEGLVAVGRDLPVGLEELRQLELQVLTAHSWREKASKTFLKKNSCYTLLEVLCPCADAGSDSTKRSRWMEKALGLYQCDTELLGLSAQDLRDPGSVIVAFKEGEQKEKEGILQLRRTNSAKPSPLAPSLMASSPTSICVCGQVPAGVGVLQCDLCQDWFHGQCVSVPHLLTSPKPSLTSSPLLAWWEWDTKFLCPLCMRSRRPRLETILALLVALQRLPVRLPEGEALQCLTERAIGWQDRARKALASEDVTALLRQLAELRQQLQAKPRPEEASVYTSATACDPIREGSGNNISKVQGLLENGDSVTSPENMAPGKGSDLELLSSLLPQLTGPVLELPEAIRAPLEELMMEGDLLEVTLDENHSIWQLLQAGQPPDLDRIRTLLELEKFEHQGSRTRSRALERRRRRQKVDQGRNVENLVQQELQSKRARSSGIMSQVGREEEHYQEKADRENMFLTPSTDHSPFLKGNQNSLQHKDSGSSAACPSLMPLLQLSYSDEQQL

| SMILES | IC50 (KDM5D) [µM] | EC50 (KDM4C) [µM] |
| --- | --- | --- |
| CCN(CCN(C)C)C(=O)CNCc1cc(C(=O)O)ccn1 [KDOAM-20] | 0.019 ± 0.004 | – |
| CCOC(=O)c1ccnc(CNCC(=O)N(CC)CCN(C)C)c1 [KDOAM-21] | – | 17.9 |
| CCN(CCN(C)C)C(=O)CNCc1cncc(C(N)=O)c1 [KDOAM-32] | – | > 100 |

Reference: publication PMC5333395, “Assessing histone demethylase inhibitors in cells: lessons learned” (Epigenetics & Chromatin, 2017)
